Assay results taken from US5821353A, “DNA encoding 1,3 beta-D glucan synthase subunits” (Merck & Co., Inc., priority 1996, dated 1998).
Values after ≈ are worked out from the molar mass of the structure shown.

How the values were obtained:
[1] = system: S. cerevisiae MY2144 (fks 1-3); assay: MIC, growth inhibition; type: cell-based, Saccharomyces cerevisiae; details: Saccharomyces cerevisiae, 24 h
Protocol: (§1) Liquid broth microdilution assay
(§2) To quantitate the sensitivity of a particular strain of S. cerevisiae to a compound such as FK506, L-733,560, or nikkomycin Z, the following procedure was followed:
(§3) Dissolve drug of interest at 4× the desired initial concentration. For L-733,560, a 64 mcg/ml solution in sterile SD is prepared. Aliquot 75 mcL of the drug suspension into column 3. Using a multichannel pipettor, transfer 75 mcL from column 3 into column 4, pipet up and down three times to mix, and then transfer 75 mcL from column 4 into column 5. Repeat the serial dilution until column 12 is reached; after mixing, discard 75 mcL to waste.
(§4) Inoculate each strain in a given row by adding 75 mcL of the inoculum into columns 2 to 12. […] Column 2 serves as the no-drug or 100% growth control. The plate is then incubated overnight at 30° C. without shaking.
(§5) After approximately 24 hours of incubation, gently agitate the plate to resuspend the cells and read the absorbance at 600 nm wavelength. The % control growth for any given well can be calculated by dividing the absorbance value for that well by the value from column 2 in the same row. If this is done for each column, the data can be plotted as "Percent control growth" vs. "Drug concentration". The resulting dose-response curve can be used to compare the drug sensitivities of various strains.
(§6) The data in the following table are the minimum concentration of the various drugs required to inhibit the growth of each the mutants and their parent X2180-1A.

S. cerevisiae MY2145 = assay: MIC, growth inhibition; type: cell-based, Saccharomyces cerevisiae; details: Saccharomyces cerevisiae, MY2145, 24 h; read-out: MIC
Protocol: as §1, §2, §3, §4, §5, §6

S. cerevisiae X2180-1A = assay: MIC, growth inhibition; type: cell-based, Saccharomyces cerevisiae; details: Saccharomyces cerevisiae, X21801A, 24 h, minimum concentration required to inhibit growth, read-out: MIC
Protocol: as §1, §2, §3, §4, §5, §6

[2] = system: S. cerevisiae MS14 mutant; assay: disc diffusion drug resistance/sensitivity test; type: cell-based, Saccharomyces cerevisiae
Protocol: Cells of the yeast strains MY2144 and MY2145 carrying the respective MS10 and MS14 mutations were grown overnight in YPAD and SC media. From the overnight cultures, cells were diluted 1:10 in the same media and allowed to further grow for 4-6 hrs. The drug resistance/sensitivity tests were conducted by the disc diffusion assay on plates containing 20 ml of solid YPAD or SC media and 3×10^6 cells. The cells were added to premelted media that was cooled to 50° C. before pouring onto plates. Sterile filter discs containing different drugs were placed on the surface of the plates followed by incubation at 28° C. for 1-2 days. Sizes of the zones of growth inhibition were measured as an indication of relative drug resistance/sensitivity. The MS14 mutant is supersensitive to the chitin synthesis inhibitor nikkomycin Z and resistant to the echinocandin L-733-560.

[3] = system: chitin synthase from MY2144 (fks 1-3); assay: chitin synthase assay, membrane preparation; type: biochemical, Saccharomyces cerevisiae; details: membranes of MY2144 (fks 1-3)
Protocol: (§7) 125 mcg of the above extracts were trypsin activated and mixed with an equal volume (50 mcL) chitin synthase reaction cocktail, which included 0.5M Tris, pH 7.5, 40 mM MgCl, 320 microM GlcNAc, ^14 C-UDP-GlcNAc substrate mix, and 0.8% digitonin. After 30 minutes of incubation at 30° C., the incorporated ^14 C-[…] was precipitated with 10% trichloroacetic acid, collected onto Whatman glass microfiber GF/A disks and counted.
(§8) Crude enzyme preparations associated with cell membranes were tested for glucan and chitin synthesis activities. The sensitivity of the mutant 1,3-beta-D glucan synthase to L-733,560 and papulacandin was tested along with the sensitivity of the chitin synthases to nikkomycin Z.
(§9) The chitin synthase is not affected in its sensitivity to nikkomycin Z. The data in the following table show the IC50 s for the glucan synthase inhibitors (L-733,560 and papulacandin) and the chitin synthase inhibitor (nikkomycin Z) in 1,3-beta-D glucan synthase and chitin synthase assays, respectively. Equal amounts of membrane proteins were used to prime each reaction.

[4] = system: chitin synthase from MY2145 (fks 1-4); assay: chitin synthase assay, membrane preparation; type: biochemical, Saccharomyces cerevisiae; details: membranes of MY2145 (fks 1-4)
Protocol: as §7, §8, §9

[5] = system: chitin synthase from X2180-1A; assay: chitin synthase assay, membrane preparation; type: biochemical, Saccharomyces cerevisiae; details: membranes of X2180-1A
Protocol: as §7, §8, §9

**Q.** For `C[C@@H]([C@H](N)C(=O)N[C@H](C(=O)O)[C@H]1O[C@@H](n2ccc(=O)[nH]c2=O)[C@H](O)[C@@H]1O)[C@H](O)c1ccc(O)cn1` [Nikkomycin Z, nikkomycin Z], which MIC [1] is on record?
**A.** > 100 µg/mL

**Q.** What about the MIC (S. cerevisiae MY2145) of the same molecule?
**A.** 0.2 µg/mL (≈ 0.404 µM)

**Q.** What about the MIC (S. cerevisiae X2180-1A) of the same molecule?
**A.** > 100 µg/mL

**Q.** And the drug resistance/sensitivity phenotype [2]?
**A.** supersensitive

**Q.** What about the IC50 [3] of the same molecule?
**A.** 0.60 µg/mL (≈ 1.21 µM)

**Q.** And the IC50 [4]?
**A.** 0.64 µg/mL (≈ 1.29 µM)

**Q.** What about the IC50 [5] of the same molecule?
**A.** 0.74 µg/mL (≈ 1.49 µM)
